From PubChem BioAssay (NCI)
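Dose response: 5 concentrations. Exposure: 48 h. Format: 96-well plates. Endpoint: linear interpolation; highest concentration if not reached. Abbreviation: GI50, concentration required for 50% inhibition of growth. TGI: total growth inhibition.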

Legend:
Assay in all cases: DTP human tumour cell line panel, 48 h
SK-MEL-28 melanoma = test system: SK-MEL-28 melanoma
SF-295 CNS = test system: SF-295 CNS
HCT-15 colon = test system: HCT-15 colon
HOP-62 NSCLC = test system: HOP-62 NSCLC
NCI/ADR-RES ovarian = test system: NCI/ADR-RES ovarian
EKVX NSCLC = test system: EKVX NSCLC
U251 CNS = test system: U251 CNS
NCI-H522 lung = test system: NCI-H522 lung
SW-620 colon = test system: SW-620 colon
LOX IMVI melanoma = test system: LOX IMVI melanoma
SF-539 CNS = test system: SF-539 CNS
A549 NSCLC = test system: A549 NSCLC
IGROV1 ovarian = test system: IGROV1 ovarian
KM12 colon = test system: KM12 colon
RXF 393 renal = test system: RXF 393 renal
MOLT-4 leukemia = test system: MOLT-4 leukemia
SK-MEL-2 melanoma = test system: SK-MEL-2 melanoma
CAKI-1 renal = test system: CAKI-1 renal
SF-268 CNS = test system: SF-268 CNS
DU-145 prostate = test system: DU-145 prostate
NCI-H460 lung = test system: NCI-H460 lung
CCRF-CEM leukemia = test system: CCRF-CEM leukemia
HCT-116 colon = test system: HCT-116 colon
K-562 leukemia = test system: K-562 leukemia
NCI-H226 lung = test system: NCI-H226 lung
A498 renal = test system: A498 renal
M14 melanoma = test system: M14 melanoma
HOP-92 NSCLC = test system: HOP-92 NSCLC
OVCAR-8 ovarian = test system: OVCAR-8 ovarian
UACC-62 melanoma = test system: UACC-62 melanoma
SK-MEL-5 melanoma = test system: SK-MEL-5 melanoma
TK-10 renal = test system: TK-10 renal
MDA-MB-468 breast = test system: MDA-MB-468 breast
ACHN renal = test system: ACHN renal
BT-549 breast = test system: BT-549 breast
OVCAR-4 ovarian = test system: OVCAR-4 ovarian
MDA-MB-435 = test system: MDA-MB-435
HCC-2998 colon = test system: HCC-2998 colon
COLO 205 colon = test system: COLO 205 colon
RPMI-8226 leukemia = test system: RPMI-8226 leukemia
OVCAR-5 ovarian = test system: OVCAR-5 ovarian
SK-OV-3 ovarian = test system: SK-OV-3 ovarian
OVCAR-3 ovarian = test system: OVCAR-3 ovarian
SNB-75 CNS = test system: SNB-75 CNS
786-0 renal = test system: 786-0 renal
MDA-MB-231 breast = test system: MDA-MB-231 breast
SNB-19 CNS = test system: SNB-19 CNS
NCI-H23 lung = test system: NCI-H23 lung
HS 578T breast = test system: HS 578T breast
MALME-3M melanoma = test system: MALME-3M melanoma
SN12C renal = test system: SN12C renal
UACC-257 melanoma = test system: UACC-257 melanoma

Cc1cccc(-c2nc(Nc3cccc(S(N)(=O)=O)c3)c3ccccc3n2)c1
GI50 (SK-MEL-28 melanoma): > 100 µM
TGI (SK-MEL-28 melanoma): > 100 µM
GI50 (SF-295 CNS): 4.43 µM
TGI (SF-295 CNS): > 100 µM
GI50 (HCT-15 colon): 3.53 µM
TGI (HCT-15 colon): > 100 µM
GI50 (HOP-62 NSCLC): > 100 µM
TGI (HOP-62 NSCLC): > 100 µM
GI50 (NCI/ADR-RES ovarian): 7.08 µM
TGI (NCI/ADR-RES ovarian): > 100 µM
GI50 (EKVX NSCLC): > 100 µM
TGI (EKVX NSCLC): > 100 µM
GI50 (U251 CNS): 11.6 µM
TGI (U251 CNS): > 100 µM
GI50 (NCI-H522 lung): 5.69 µM
TGI (NCI-H522 lung): > 100 µM
GI50 (SW-620 colon): 17.4 µM
TGI (SW-620 colon): > 100 µM
GI50 (LOX IMVI melanoma): 4.76 µM
TGI (LOX IMVI melanoma): > 100 µM
GI50 (SF-539 CNS): 6.2 µM
TGI (SF-539 CNS): 25.1 µM
GI50 (A549 NSCLC): 10.9 µM
TGI (A549 NSCLC): > 100 µM
GI50 (IGROV1 ovarian): > 100 µM
TGI (IGROV1 ovarian): > 100 µM
GI50 (KM12 colon): 3.62 µM
TGI (KM12 colon): > 100 µM
GI50 (RXF 393 renal): 6.23 µM
TGI (RXF 393 renal): > 100 µM
GI50 (MOLT-4 leukemia): 4.1 µM
TGI (MOLT-4 leukemia): > 100 µM
GI50 (SK-MEL-2 melanoma): > 100 µM
TGI (SK-MEL-2 melanoma): > 100 µM
GI50 (CAKI-1 renal): 13.8 µM
TGI (CAKI-1 renal): > 100 µM
GI50 (SF-268 CNS): > 100 µM
TGI (SF-268 CNS): > 100 µM
GI50 (DU-145 prostate): > 100 µM
TGI (DU-145 prostate): > 100 µM
GI50 (NCI-H460 lung): 7.2 µM
TGI (NCI-H460 lung): 43 µM
GI50 (CCRF-CEM leukemia): 4.77 µM
TGI (CCRF-CEM leukemia): > 100 µM
GI50 (HCT-116 colon): 8.09 µM
TGI (HCT-116 colon): > 100 µM
GI50 (K-562 leukemia): 3.23 µM
TGI (K-562 leukemia): > 100 µM
GI50 (NCI-H226 lung): > 100 µM
TGI (NCI-H226 lung): > 100 µM
GI50 (A498 renal): > 100 µM
TGI (A498 renal): > 100 µM
GI50 (M14 melanoma): > 100 µM
TGI (M14 melanoma): > 100 µM
GI50 (HOP-92 NSCLC): 34.9 µM
TGI (HOP-92 NSCLC): > 100 µM
GI50 (OVCAR-8 ovarian): 9.82 µM
TGI (OVCAR-8 ovarian): > 100 µM
GI50 (UACC-62 melanoma): > 100 µM
TGI (UACC-62 melanoma): > 100 µM
GI50 (SK-MEL-5 melanoma): > 100 µM
TGI (SK-MEL-5 melanoma): > 100 µM
GI50 (TK-10 renal): > 100 µM
TGI (TK-10 renal): > 100 µM
GI50 (MDA-MB-468 breast): 5.57 µM
TGI (MDA-MB-468 breast): > 100 µM
GI50 (ACHN renal): 7.93 µM
TGI (ACHN renal): > 100 µM
GI50 (BT-549 breast): > 100 µM
TGI (BT-549 breast): > 100 µM
GI50 (OVCAR-4 ovarian): > 100 µM
TGI (OVCAR-4 ovarian): > 100 µM
GI50 (MDA-MB-435): > 100 µM
TGI (MDA-MB-435): > 100 µM
GI50 (HCC-2998 colon): 4.98 µM
TGI (HCC-2998 colon): > 100 µM
GI50 (COLO 205 colon): > 100 µM
TGI (COLO 205 colon): > 100 µM
GI50 (RPMI-8226 leukemia): 7.66 µM
TGI (RPMI-8226 leukemia): > 100 µM
GI50 (OVCAR-5 ovarian): > 100 µM
TGI (OVCAR-5 ovarian): > 100 µM
GI50 (SK-OV-3 ovarian): > 100 µM
TGI (SK-OV-3 ovarian): > 100 µM
GI50 (OVCAR-3 ovarian): 9.42 µM
TGI (OVCAR-3 ovarian): > 100 µM
GI50 (SNB-75 CNS): > 100 µM
TGI (SNB-75 CNS): > 100 µM
GI50 (786-0 renal): 8.53 µM
TGI (786-0 renal): > 100 µM
GI50 (MDA-MB-231 breast): 6.52 µM
TGI (MDA-MB-231 breast): > 100 µM
GI50 (SNB-19 CNS): > 100 µM
TGI (SNB-19 CNS): > 100 µM
GI50 (NCI-H23 lung): 30.6 µM
TGI (NCI-H23 lung): > 100 µM
GI50 (HS 578T breast): > 100 µM
TGI (HS 578T breast): > 100 µM
GI50 (MALME-3M melanoma): > 100 µM
TGI (MALME-3M melanoma): > 100 µM
GI50 (SN12C renal): > 100 µM
TGI (SN12C renal): > 100 µM
GI50 (UACC-257 melanoma): > 100 µM
TGI (UACC-257 melanoma): > 100 µM
